Measured values as given in US7345081B2, “Azabicyclo-octane inhibitors of IAP” (Genentech, Inc., priority 2004, dated 2008).

Key:
MLXBIR3SG [1] = target: T1, MLXBIR3SG (Homo sapiens, UniProt Q96CA5, S150G); test: TR-FRET peptide binding assay; settings: TR-FRET competition; 300 nM his-tagged MLXBIR3SG, 200 nM biotinylated SMAC peptide (AVPI)
T1 sequence (Q96CA5 with tags, fused parts or gaps S150G): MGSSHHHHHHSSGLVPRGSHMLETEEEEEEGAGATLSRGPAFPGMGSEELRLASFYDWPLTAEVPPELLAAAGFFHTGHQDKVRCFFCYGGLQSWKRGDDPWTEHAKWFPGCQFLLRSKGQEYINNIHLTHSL
Procedure: The improved caspase-9 inhibition of the chimeric BIR domain MLXBIR3SG has been correlated with increased inhibition of doxorubicin-induced apoptosis when transfected into MCF7 cells. TR-FRET Peptide Binding Assay Time-Resolved Fluorescence Resonance Energy Transfer competition experiments were performed on the Wallac Victor2 Multilabeled Counter Reader (Perkin Elmer Life and Analytical Sciences, Inc.) according to the procedures of Kolb et al (Journal of Biomolecular Screening, 1996, 1(4):203). A reagent cocktail containing 300 nM his-tagged MLXBIR3SG; 200 nM biotinylated SMAC peptide (AVPI); 5 μg/mL anti-his allophycocyanin (XL665) (CISBio International); and 200 ng/mL streptavidin-europium (Perkin Elmer) was prepared in reagent buffer (50 mM Tris [pH 7.2], 120 mM NaCl, 0.1% bovine globulins, 5 mM DTT and 0.05% octylglucoside). […] The reagent cocktail was incubated at room temperature for 30 minutes. […] After a 90 minute incubation at room temperature, the fluorescence was read with filters for the excitation of europium (340 nm) and for the emission wavelengths of europium (615 nm) and a allophycocyanin (665 nm). Antagonist data were calculated as a ratio of the emission signal of allophycocyanin at 665 nm to that of the emission of europium at 615 nm (these ratios were multiplied by a factor of 10,000 for ease of data manipulation). The resulting values were plotted as a function of antagonist concentration and fit to a 4-parameter equation using Kaleidograph software (Synergy Software, Reading, Pa.). Indications of antagonist potency were determined from the IC50 values.

MLXBIR3SG [2] = target: T1, MLXBIR3SG; test: Fluorescence polarization peptide binding assay; settings: fluorescence polarization competition; for Ki: Ki determined from the IC50 values; for IC50: MLXBIR3SG at 30 nM, 5 nM AVP-diPhe-FAM probe
Procedure: The improved caspase-9 inhibition of the chimeric BIR domain MLXBIR3SG has been correlated with increased inhibition of doxorubicin-induced apoptosis when transfected into MCF7 cells. Fluorescence Polarization Peptide Binding Assay Polarization experiments were performed on an Analyst HT 96-384 (Molecular Devices Corp.) according to the procedure of […]., Zioncheck, K., Clark, K., Arellano, F., and Bodary., S.(2000) in Proceedings of SPIE : In Vitro Diagnostic Instrumentation (Cohn, G. E., Ed.) pp 128-137, Bellingham, Wash. […] Fluorescence values were plotted as a function of the protein concentration, and the IC50s were obtained by fitting the data to a 4-parameter equation using Kaleidograph software (Synergy software, Reading, Pa.). […] Samples were read after a 10-minute incubation. Fluorescence polarization values were plotted as a function of the antagonist concentration, and the IC50 values were obtained by fitting the data to a 4-parameter equation using Kaleidograph software (Synergy software, Reading, Pa.). Inhibition constants (Ki) for the antagonists were determined from the IC50 values.

CN[C@@H](C)C(=O)N[C@H](C(=O)N1CCC2CCC(NC(=O)C3COc4ccccc43)C21)C(C)(C)C (stereo partly drawn) [Compound 3]
IC50 (MLXBIR3SG [1]): < 10 µM

C[C@H](N)C(=O)N[C@H](C(=O)N1CCC2CCC(NC(=O)C(c3ccccc3)c3ccccc3)C21)C(C)(C)C (stereo partly drawn) [Compound 22]
IC50 (MLXBIR3SG [1]): < 10 µM

CN[C@@H](C)C(=O)N[C@H](C(=O)N1CCC2CCC(NC(=O)c3c(OC)ccc4ccccc34)C21)C(C)(C)C (stereo partly drawn) [Compound 12]
IC50 (MLXBIR3SG [1]): < 10 µM | Ki (MLXBIR3SG [2]): < 0.2 µM | IC50 (MLXBIR3SG [2]): < 1 µM

CN[C@@H](C)C(=O)N[C@H](C(=O)N1CCC2CCC(NC(=O)C(c3ccccc3)c3ccc(F)cc3)C21)C(C)(C)C (stereo partly drawn) [Compound 4]
IC50 (MLXBIR3SG [1]): < 10 µM | Ki (MLXBIR3SG [2]): < 0.2 µM | IC50 (MLXBIR3SG [2]): < 1 µM

CN[C@@H](C)C(=O)N[C@H](C(=O)N1CCC2CCC(NC(=O)c3coc4ccccc34)C21)C(C)(C)C (stereo partly drawn) [Compound 11]
IC50 (MLXBIR3SG [1]): < 10 µM

CN[C@@H](C)C(=O)N[C@H](C(=O)N1CCC2CCC(NC(=O)c3cccc4ccccc34)C21)C1CCCCC1 (stereo partly drawn) [Compound 28]
IC50 (MLXBIR3SG [1]): < 10 µM

CN[C@@H](C)C(=O)N[C@H](C(=O)N1CCC2CCC(NC(=O)c3cccc4ccccc34)C21)C(C)(C)C (stereo partly drawn) [Compound 21]
IC50 (MLXBIR3SG [1]): < 10 µM

CN[C@@H](C)C(=O)N[C@H](C(=O)N1CCC2CCC(NC(=O)c3ccccc3)C21)C(C)(C)C (stereo partly drawn) [Compound 14]
IC50 (MLXBIR3SG [1]): < 10 µM

CNC(C)C(=O)NC(C(=O)N1CCC2CCC(NC(=O)C(c3ccccc3)c3ccccc3)C21)C(C)(C)C (stereo not drawn) [Compound 9]
IC50 (MLXBIR3SG [1]): < 10 µM

CN[C@@H](C)C(=O)N[C@H](C(=O)N1CCC2CCC(NC(=O)c3csc4ccccc34)C21)C(C)(C)C (stereo partly drawn) [Compound 16]
IC50 (MLXBIR3SG [1]): < 10 µM | Ki (MLXBIR3SG [2]): < 0.2 µM | IC50 (MLXBIR3SG [2]): < 1 µM

C[C@H](N)C(=O)N[C@H](C(=O)N1CCC2CCC(NC(=O)c3cccc4ccccc34)C21)C(C)(C)C (stereo partly drawn) [Compound 13]
IC50 (MLXBIR3SG [1]): < 10 µM

COc1ccc2ccccc2c1C(=O)NC1CCC2CCN(C(=O)C(NC(=O)C(C)N)C(C)C)C21 (stereo not drawn) [Compound 5]
IC50 (MLXBIR3SG [1]): < 10 µM

CN[C@@H](C)C(=O)N[C@H](C(=O)N1CCC2CCC(NC(=O)c3ccc(C)c4ccccc34)C21)C(C)(C)C (stereo partly drawn) [Compound 6]
IC50 (MLXBIR3SG [1]): < 10 µM | Ki (MLXBIR3SG [2]): < 0.2 µM | IC50 (MLXBIR3SG [2]): < 1 µM

CN[C@@H](C)C(=O)N[C@H](C(=O)N1CCC2CCC(NC(=O)c3ccc(F)c4ccccc34)C21)C(C)(C)C (stereo partly drawn) [Compound 24]
IC50 (MLXBIR3SG [1]): < 10 µM | Ki (MLXBIR3SG [2]): < 0.2 µM | IC50 (MLXBIR3SG [2]): < 1 µM
